These results are taken from patent US12685735B2 (Foghorn Therapeutics Inc., priority 2020, dated 2026).

The target of assay [1] is BRM (Homo sapiens, UniProt P51531). The assay is described as follows: ATPase catalytic activity assay of BRM (ADP-Glo). The class given is biochemical. The conditions noted are these: for IC50: read-out: BRM IC50 (μM)*. Put shortly: (§1)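 In vitro biochemical ATPase assay; product ADP detected after removing leftover ATP and reconverting ADP to ATP for a luciferase signal.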
Chain of BRM (P51531 whole entry): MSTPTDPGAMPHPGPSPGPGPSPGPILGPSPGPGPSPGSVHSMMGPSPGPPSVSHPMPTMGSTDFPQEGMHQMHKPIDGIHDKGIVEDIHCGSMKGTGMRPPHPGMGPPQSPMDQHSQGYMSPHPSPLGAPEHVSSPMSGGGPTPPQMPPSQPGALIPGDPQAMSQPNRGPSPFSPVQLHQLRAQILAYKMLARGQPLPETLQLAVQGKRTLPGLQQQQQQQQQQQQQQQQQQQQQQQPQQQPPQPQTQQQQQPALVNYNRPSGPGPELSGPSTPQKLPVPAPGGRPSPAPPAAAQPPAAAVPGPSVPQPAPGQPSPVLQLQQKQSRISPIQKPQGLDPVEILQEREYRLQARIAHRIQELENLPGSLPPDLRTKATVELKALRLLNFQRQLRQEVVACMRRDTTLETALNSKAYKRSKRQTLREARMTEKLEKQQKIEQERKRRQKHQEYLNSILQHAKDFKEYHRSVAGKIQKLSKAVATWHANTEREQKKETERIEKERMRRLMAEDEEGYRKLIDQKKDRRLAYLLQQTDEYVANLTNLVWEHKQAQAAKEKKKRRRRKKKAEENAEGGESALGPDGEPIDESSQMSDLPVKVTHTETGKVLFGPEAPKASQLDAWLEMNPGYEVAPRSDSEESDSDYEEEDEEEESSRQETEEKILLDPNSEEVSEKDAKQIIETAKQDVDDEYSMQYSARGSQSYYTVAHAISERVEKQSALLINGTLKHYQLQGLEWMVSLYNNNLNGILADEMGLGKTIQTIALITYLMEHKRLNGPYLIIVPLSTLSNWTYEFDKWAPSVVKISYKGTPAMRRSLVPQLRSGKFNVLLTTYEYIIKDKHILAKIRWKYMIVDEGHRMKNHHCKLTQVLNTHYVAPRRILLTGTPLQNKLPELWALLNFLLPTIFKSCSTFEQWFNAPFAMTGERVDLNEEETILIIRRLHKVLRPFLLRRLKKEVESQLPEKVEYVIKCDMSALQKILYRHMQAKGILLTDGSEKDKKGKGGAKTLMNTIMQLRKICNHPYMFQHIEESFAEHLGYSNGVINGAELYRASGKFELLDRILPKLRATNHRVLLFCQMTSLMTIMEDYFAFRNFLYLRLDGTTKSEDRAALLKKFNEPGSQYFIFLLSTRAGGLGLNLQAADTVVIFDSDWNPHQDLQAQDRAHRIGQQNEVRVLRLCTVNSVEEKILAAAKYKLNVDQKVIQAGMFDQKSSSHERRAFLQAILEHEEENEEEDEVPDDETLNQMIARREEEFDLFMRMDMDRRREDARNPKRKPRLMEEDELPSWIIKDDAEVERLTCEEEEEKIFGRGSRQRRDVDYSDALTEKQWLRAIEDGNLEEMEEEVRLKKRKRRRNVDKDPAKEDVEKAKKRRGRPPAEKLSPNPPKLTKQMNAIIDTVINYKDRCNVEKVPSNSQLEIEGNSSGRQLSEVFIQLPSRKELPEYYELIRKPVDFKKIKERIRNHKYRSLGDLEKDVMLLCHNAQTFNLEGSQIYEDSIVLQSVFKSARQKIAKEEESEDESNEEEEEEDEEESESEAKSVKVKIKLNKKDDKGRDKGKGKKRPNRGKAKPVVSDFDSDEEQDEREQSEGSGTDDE
(In ADP-Glo the light output rises with the ADP produced.)

The target of assay [2] is BRG-1 (Homo sapiens, UniProt P51532). Kind of assay: ATPase catalytic activity assay of BRG-1 (ADP-Glo). The class given is biochemical. The conditions noted are these: ATPase catalytic activity, ADP-Glo; for IC50: read-out: BRG1 IC50 (μM)*; for Emax: read-out: BRG1 Max % Inhibition. Put shortly: as §1
Chain of BRG-1 (P51532 whole entry): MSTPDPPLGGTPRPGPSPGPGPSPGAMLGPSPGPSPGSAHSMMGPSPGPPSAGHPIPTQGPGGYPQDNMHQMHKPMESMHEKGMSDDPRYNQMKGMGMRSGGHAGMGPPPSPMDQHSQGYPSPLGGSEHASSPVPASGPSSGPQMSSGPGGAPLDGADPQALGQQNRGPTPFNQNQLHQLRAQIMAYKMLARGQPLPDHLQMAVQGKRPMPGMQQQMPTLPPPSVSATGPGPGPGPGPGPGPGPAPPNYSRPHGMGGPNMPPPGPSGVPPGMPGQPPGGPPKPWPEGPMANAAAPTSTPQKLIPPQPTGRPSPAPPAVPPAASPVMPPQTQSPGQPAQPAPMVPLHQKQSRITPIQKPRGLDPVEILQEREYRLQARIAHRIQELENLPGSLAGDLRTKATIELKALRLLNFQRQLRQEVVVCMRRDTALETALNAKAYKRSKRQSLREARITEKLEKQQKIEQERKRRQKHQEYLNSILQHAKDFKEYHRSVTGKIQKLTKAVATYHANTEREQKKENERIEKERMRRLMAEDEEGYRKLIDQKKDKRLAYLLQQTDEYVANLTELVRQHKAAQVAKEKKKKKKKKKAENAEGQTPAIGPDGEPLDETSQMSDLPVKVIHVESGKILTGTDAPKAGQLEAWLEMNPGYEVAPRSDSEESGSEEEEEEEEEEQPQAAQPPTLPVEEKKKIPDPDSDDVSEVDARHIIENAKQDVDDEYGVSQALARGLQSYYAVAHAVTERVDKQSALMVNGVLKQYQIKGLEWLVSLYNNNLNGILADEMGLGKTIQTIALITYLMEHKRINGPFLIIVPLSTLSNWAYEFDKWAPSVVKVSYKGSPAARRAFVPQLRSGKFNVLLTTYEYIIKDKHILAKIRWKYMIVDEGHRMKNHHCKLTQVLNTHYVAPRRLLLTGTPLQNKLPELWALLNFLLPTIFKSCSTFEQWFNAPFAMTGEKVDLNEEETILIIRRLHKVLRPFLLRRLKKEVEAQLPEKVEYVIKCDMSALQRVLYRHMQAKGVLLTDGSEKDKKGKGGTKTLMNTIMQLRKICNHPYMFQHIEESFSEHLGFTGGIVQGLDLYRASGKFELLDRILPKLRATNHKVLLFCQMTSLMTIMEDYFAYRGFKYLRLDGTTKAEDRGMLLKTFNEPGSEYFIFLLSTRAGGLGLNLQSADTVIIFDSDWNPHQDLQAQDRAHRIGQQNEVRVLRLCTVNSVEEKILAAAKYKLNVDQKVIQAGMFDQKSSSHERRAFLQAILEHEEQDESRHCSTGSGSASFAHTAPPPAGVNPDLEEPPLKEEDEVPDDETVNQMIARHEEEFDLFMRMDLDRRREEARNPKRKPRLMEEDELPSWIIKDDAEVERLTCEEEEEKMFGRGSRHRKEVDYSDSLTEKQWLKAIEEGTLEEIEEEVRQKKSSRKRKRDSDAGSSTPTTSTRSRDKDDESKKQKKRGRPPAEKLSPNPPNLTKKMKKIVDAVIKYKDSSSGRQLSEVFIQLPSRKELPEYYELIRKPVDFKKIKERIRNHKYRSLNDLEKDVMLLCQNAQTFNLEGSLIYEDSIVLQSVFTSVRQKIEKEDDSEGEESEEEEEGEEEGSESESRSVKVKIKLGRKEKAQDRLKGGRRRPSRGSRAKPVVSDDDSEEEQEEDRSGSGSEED

What is called IC50 is the concentration at which inhibition is half-maximal.

Structures are written as SMILES.

Turning to `C[C@@]1(C#N)COCc2ccc(C(=O)NCC(=O)Nc3nc(-c4cccc([C@H]5CCO5)c4)cs3)cc21` [Compound 359, (R)-4-cyano-4-methyl-N-(2-((4-(3-((trans)-oxetan-2-yl)phenyl)thiazol-2-yl)amino)-2-oxoethyl)isochromane-6-carboxamide], in assay [1], the “BRM Max % Inhibition” value is over 95% and the IC50 was under 0.1 µM. Moreover, in assay [2], the half-inhibitory concentration (IC50) fell in the range of 0.1 to 1 µM and the Emax is over 95%.

Turning to `C[C@@H]1CN(c2cccc(-c3csc(NC(=O)CNC(=O)c4ccc5c(c4)C4(CCO5)CCO4)n3)n2)C[C@H](C)O1` (some centres unmarked) [Compound 360], the IC50 in assay [1] was under 0.1 µM; in assay [2], 1 to 5 µM. In assay [2], the Emax was over 95%.

On to `O=C(CNC(=O)c1cccc(C2(C(F)F)COC2)c1)Nc1nc(-c2cccc(N3CCC3)c2)cs1` [Compound 362, N-(2-((4-(3-(azetidin-1-yl)phenyl)thiazol-2-yl)amino)-2-oxoethyl)-3-(3-(difluoromethyl)oxetan-3-yl)benzamide], for which, in assay [1], the “BRM Max % Inhibition” value was over 90% and the IC50 is under 0.1 µM. Also, in assay [2], the half-inhibitory concentration (IC50) is 0.1 to 1 µM and the Emax is over 90%.

Turning to `C[C@@]1(C#N)COCc2ccc(C(=O)NCC(=O)Nc3nc(-c4cc(F)cc(N5CCC5)c4)cs3)cc21` [Compound 364, (R)-N-(2-((4-(3-(azetidin-1-yl)-5-fluorophenyl)thiazol-2-yl)amino)-2-oxoethyl)-4-cyano-4-methylisochromane-6-carboxamide], in assay [1], the “BRM Max % Inhibition” value is reported as over 95% and the IC50 was under 0.1 µM. Also, in assay [2], the half-maximal inhibitory concentration (IC50) is under 0.1 µM and the Emax was over 95%.

As to `C[C@@]1(C#N)COCc2ccc(C(=O)NCC(=O)Nc3nc(-c4cccc(C5CCO5)c4)cs3)cc21` (some centres unmarked) [Compound 365], in assay [1], the “BRM Max % Inhibition” value is on record as over 95% and the IC50 is under 0.1 µM. Further, in assay [2], the “BRG1 Max % Inhibition” value is on record as over 95% and the IC50 is 0.1 to 1 µM.

On to `C[C@@H]1CN(c2cccc(-c3csc(NC(=O)CNC(=O)c4ccc5c(c4)CCOC5)n3)n2)C[C@H](C)O1` [Compound 366, N-(2-((4-(6-((cis)-2,6-dimethylmorpholino)pyridin-2-yl)thiazol-2-yl)amino)-2-oxoethyl)isochromane-6-carboxamide], for which, in assay [1], the “BRM Max % Inhibition” value is over 85% and the IC50 was under 0.1 µM. Moreover, in assay [2], the 50% inhibitory concentration (IC50) was 0.1 to 1 µM and the Emax was over 85%.

For the molecule `CCS1(=O)=NCc2ccc(C(=O)NCC(=O)Nc3nc(-c4cccc(N5C[C@@H](C)O[C@@H](C)C5)c4)cs3)cc21` (stereo partly drawn) [Compound 367, N-(2-((4-(3-((cis)-2,6-dimethylmorpholino)phenyl)thiazol-2-yl)amino)-2-oxoethyl)-1-ethyl-3H-1I4-benzo[d]isothiazole-6-carboxamide 1-oxide], in assay [1], the “BRM Max % Inhibition” value was over 85% and the IC50 lay in the range of 0.1 to 1 µM. Also, in assay [2], the half-maximal inhibitory concentration (IC50) is 1 to 5 µM and the Emax was over 85%.

Turning to `C[C@@H]1CN(c2cccc(-c3csc(NC(=O)CNC(=O)c4ccc5c(c4)[C@@](C)(C#N)CN5C)n3)c2)C[C@H](C)O1` [Compound 368, (R)-3-cyano-N-(2-((4-(3-((cis)-2,6-dimethylmorpholino)phenyl)thiazol-2-yl)amino)-2-oxoethyl)-1,3-dimethylindoline-5-carboxamide], in assay [1], the “BRM Max % Inhibition” value is reported as over 85% and the concentration for half-maximal inhibition (IC50) was 0.1 to 1 µM. Besides, in assay [2], the IC50 was in the range of 1 to 5 µM and the Emax is over 85%.

Take `C[C@@H]1CN(c2cccc(-c3csc(NC(=O)CNC(=O)c4ccc5c(c4)[C@](C)(C#N)CN5C)n3)c2)C[C@H](C)O1` [Compound 369, (S)-3-cyano-N-(2-((4-(3-((cis)-2,6-dimethylmorpholino)phenyl)thiazol-2-yl)amino)-2-oxoethyl)-1,3-dimethylindoline-5-carboxamide]: in assay [1], the “BRM Max % Inhibition” value is listed as over 95% and the IC50 is under 0.1 µM. Moreover, in assay [2], the IC50 is under 0.1 µM and the Emax is over 95%.

As to `C[C@@H]1CN(c2cccc(-c3csc(NC(=O)CNC(=O)c4ccc5c(c4)CCCO5)n3)n2)C[C@H](C)O1` [Compound 370, N-(2-((4-(6-((cis)-2,6-dimethylmorpholino)pyridin-2-yl)thiazol-2-yl)amino)-2-oxoethyl)chromane-6-carboxamide], in assay [1], the “BRM Max % Inhibition” value was over 65% and the 50% inhibitory concentration (IC50) lay within 0.1 to 1 µM. In assay [2], the IC50 was over 5 µM and the Emax was over 65%.

For the molecule `C[C@@]1(C#N)COCc2ccc(C(=O)NCC(=O)Nc3nc(-c4cccc(C5CCO5)c4)cs3)cc21` (stereo partly drawn) [Compound 371, (R)-4-cyano-4-methyl-N-(2-((4-(3-(oxetan-2-yl)phenyl)thiazol-2-yl)amino)-2-oxoethyl)isochromane-6-carboxamide], in assay [1], the “BRM Max % Inhibition” value is listed as over 95% and the IC50 was under 0.1 µM. Moreover, in assay [2], the IC50 lay within 0.1 to 1 µM and the Emax is over 95%.

With `C[C@@H]1CN(c2cccc(-c3csc(NC(=O)CNC(=O)c4ccc5c(c4)C(C#N)(CO)COC5)n3)c2)C[C@H](C)O1` (stereo partly drawn) [Compound 374, 4-cyano-N-(2-((4-(3-((cis)-2,6-dimethylmorpholino)phenyl)thiazol-2-yl)amino)-2-oxoethyl)-4-(hydroxymethyl)isochromane-6-carboxamide], in assay [1], the “BRM Max % Inhibition” value was over 95% and the IC50 was under 0.1 µM. Moreover, in assay [2], the half-inhibitory concentration (IC50) lay in the range of 0.1 to 1 µM and the Emax is over 95%.

As to `C[C@@H]1CN(c2cccc(-c3csc(NC(=O)CNC(=O)c4ccc5c(c4)C4(CCO4)COC5)n3)n2)C[C@H](C)O1` (stereo partly drawn) [Compound 376, N-(2-((4-(6-((cis)-2,6-dimethylmorpholino)pyridin-2-yl)thiazol-2-yl)amino)-2-oxoethyl)spiro[isochromane-4,2′-oxetane]-6-carboxamide], in assay [1], the “BRM Max % Inhibition” value is given as over 95% and the IC50 was under 0.1 µM. Also, in assay [2], the half-inhibitory concentration (IC50) fell in the range of 0.1 to 1 µM and the Emax was over 95%.

For the molecule `COc1cc(F)cc(-c2csc(NC(=O)CNC(=O)c3ccc4c(c3)[C@](C)(C#N)COC4)n2)c1` [Compound 377, (R)-4-cyano-N-(2-((4-(3-fluoro-5-methoxyphenyl)thiazol-2-yl)amino)-2-oxoethyl)-4-methylisochromane-6-carboxamide], in assay [1], the “BRM Max % Inhibition” value was over 95% and the 50% inhibitory concentration (IC50) was under 0.1 µM. Further, in assay [2], the IC50 is under 0.1 µM and the Emax was over 95%.

As for `CC(=O)N1CC(c2cccc(-c3csc(NC(=O)CNC(=O)c4ccc5c(c4)[C@](C)(C#N)COC5)n3)c2)C1` [Compound 379, (R)-N-(2-((4-(3-(1-acetylazetidin-3-yl)phenyl)thiazol-2-yl)amino)-2-oxoethyl)-4-cyano-4-methylisochromane-6-carboxamide], in assay [1], the “BRM Max % Inhibition” value is over 95% and the concentration for half-maximal inhibition (IC50) was under 0.1 µM. For the same molecule, in assay [2], the half-maximal inhibitory concentration (IC50) was in the range of 0.1 to 1 µM and the Emax is over 95%.

On to `C[C@@H]1CN(c2cccc(-c3csc(NC(=O)CNC(=O)c4ccc5c(c4)C4(CCO5)COC4)n3)n2)C[C@H](C)O1` [Compound 381, N-(2-((4-(6-((cis)-2,6-dimethylmorpholino)pyridin-2-yl)thiazol-2-yl)amino)-2-oxoethyl)spiro[chromane-4,3′-oxetane]-6-carboxamide], for which, in assay [1], the “BRM Max % Inhibition” value is over 80% and the IC50 fell in the range of 0.1 to 1 µM. Further, in assay [2], the concentration for half-maximal inhibition (IC50) is over 5 µM and the Emax is over 80%.

For `Cn1ccc2ccc(-c3csc(NC(=O)CNC(=O)c4ccc5c(c4)C4(CCO5)COC4)n3)cc2c1=O` [Compound 382, N-(2-((4-(2-methyl-1-oxo-1,2-dihydroisoquinolin-7-yl)thiazol-2-yl)amino)-2-oxoethyl)spiro[chromane-4,3′-oxetane]-6-carboxamide], in assay [1], the “BRM Max % Inhibition” value is on record as over 50% and the IC50 fell in the range of 0.1 to 1 µM. In addition, in assay [2], the IC50 was over 5 µM and the Emax was over 50%.

For the molecule `C[C@@H]1CN(c2cccc(-c3csc(NC(=O)CNC(=O)c4cc(C(C)(C)C)ncc4F)n3)c2)C[C@H](C)O1` [Compound 383, 2-(tert-butyl)-N-(2-((4-(3-((cis)-2,6-dimethylmorpholino)phenyl)thiazol-2-yl)amino)-2-oxoethyl)-5-fluoroisonicotinamide], in assay [1], the “BRM Max % Inhibition” value was over 85% and the IC50 lay within 0.1 to 1 µM. Also, in assay [2], the half-maximal inhibitory concentration (IC50) is over 5 µM and the Emax is over 85%.

As for `C[C@@H]1CN(c2cccc(-c3csc(NC(=O)CNC(=O)c4ccc5c(c4)C(C)(C#N)OCC5)n3)n2)C[C@H](C)O1` (stereo partly drawn) [Compound 384, 1-cyano-N-(2-((4-(6-((cis)-2,6-dimethylmorpholino)pyridin-2-yl)thiazol-2-yl)amino)-2-oxoethyl)-1-methylisochromane-7-carboxamide], in assay [1], the “BRM Max % Inhibition” value is given as over 90% and the concentration for half-maximal inhibition (IC50) fell in the range of 0.1 to 1 µM. Also, in assay [2], the IC50 lay within 1 to 5 µM and the Emax was over 90%.

Regarding `C[C@@H]1CN(c2cccc(-c3csc(NC(=O)CNC(=O)c4ccc5c(c4)C(F)(F)COC5)n3)n2)C[C@H](C)O1` [Compound 385, N-(2-((4-(6-((cis)-2,6-dimethylmorpholino)pyridin-2-yl)thiazol-2-yl)amino)-2-oxoethyl)-4,4-difluoroisochromane-6-carboxamide], in assay [1], the “BRM Max % Inhibition” value is listed as over 95% and the half-maximal inhibitory concentration (IC50) was under 0.1 µM. Further, in assay [2], the half-inhibitory concentration (IC50) fell in the range of 0.1 to 1 µM and the Emax was over 95%.

As for `C[C@@]1(C#N)COCc2ccc(C(=O)NCC(=O)Nc3nc(-c4cccc([C@@H]5CC5(F)F)n4)cs3)cc21` [Compound 386, (R)-4-cyano-N-(2-((4-(6-((S)-2,2-difluorocyclopropyl)pyridin-2-yl)thiazol-2-yl)amino)-2-oxoethyl)-4-methylisochromane-6-carboxamide], in assay [1], the “BRM Max % Inhibition” value is on record as over 95% and the concentration for half-maximal inhibition (IC50) is under 0.1 µM. In assay [2], the IC50 lay in the range of 0.1 to 1 µM and the Emax was over 95%.
